Data as given in patent publication US20250145665A1, “MACROCYCLIC PEPTIDES USEFUL AS MODULATORS OF TNF ALPHA” (Bristol-Myers Squibb Company, priority 2023, published 2025).
Like-named read-outs stand apart in the source and are kept apart here. Starred links: 1 amine or outer side, 2 acyl side, 3 side chain; linkers in the order of their positions; H or OH if unused. Positions of bridges follow the written chain, without caps; N, C: chain ends. Non-standard residues stand in square brackets, D forms with d. Residues, ends and D or L forms follow the SMILES beside them. *: point of attachment. Bip(4'-NHCO-C6H4-3-CH2COOH) = N[C@@H](Cc1ccc(-c2ccc(NC(=O)c3cccc(CC(=O)O)c3)cc2)cc1)C(=O)O; Bip(4'-NHCO-C6H4-4-CH2COOH) = N[C@@H](Cc1ccc(-c2ccc(NC(=O)c3ccc(CC(=O)O)cc3)cc2)cc1)C(=O)O; Bip(4'-NHBz) = N[C@@H](Cc1ccc(-c2ccc(NC(=O)c3ccccc3)cc2)cc1)C(=O)O; Bip(4'-NH) = O=C([C@H](Cc1ccc(-c2ccc(N[*:3])cc2)cc1)N[*:1])[*:2]; Bip(4'-COOH) = N[C@@H](Cc1ccc(-c2ccc(C(=O)O)cc2)cc1)C(=O)O; Ala(morpholin-4-yl) = N[C@@H](CN1CCOCC1)C(=O)O; Benzoyl(4-OCH2COOH) = O=C(O)COc1ccc(C(=O)*)cc1; Bip = N[C@@H](Cc1ccc(-c2ccccc2)cc1)C(=O)O; 2Pal = N[C@@H](Cc1ccccn1)C(=O)O; Cha = N[C@@H](CC1CCCCC1)C(=O)O; Chg = N[C@H](C(=O)O)C1CCCCC1; Tle = CC(C)(C)[C@H](N)C(=O)O; Sar = CNCC(=O)O

Target: TNFα (Homo sapiens, UniProt P01375)
Assay: TNF-Induced HEK-Blue Assay
Format: cell-based
[1] = HEK-Blue-CD40L cells, NF-kB-driven secreted alkaline phosphatase reporter, TNFα 0.5 ng/ml, 18 h, read-out: TNF induced HEK-Blue assay IC50 value

TNFα, sequence (P01375 77-233 limits assumed): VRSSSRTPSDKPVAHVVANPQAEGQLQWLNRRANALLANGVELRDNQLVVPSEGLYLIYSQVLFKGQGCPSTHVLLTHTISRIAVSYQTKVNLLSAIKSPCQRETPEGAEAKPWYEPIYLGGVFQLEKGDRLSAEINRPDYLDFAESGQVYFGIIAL

Row | SMILES | IC50 [1] [µM] | IC50 [µM]
1 | CC[C@H](C)[C@@H]1NC(=O)[C@@H](CCCNC(=N)N)NC(=O)[C@H](CC(=O)O)NC(=O)[C@H](Cc2cnc[nH]2)NC(=O)CN(C)C(=O)[C@H](Cc2ccc(-c3ccc(NC(=O)c4cccc(CC(=O)O)c4)cc3)cc2)NC(=O)[C@H](Cc2ccc(-c3ccccc3)cc2)NC(=O)[C@H](CN2CCOCC2)NC(=O)CSC[C@@H](C(=O)NCC(N)=O)NC(=O)[C@H](CC(C)C)NC(=O)[C@H](Cc2cnc[nH]2)NC(=O)[C@H](C(C)C)NC(=O)[C@@H]2CCCN2C1=O [Example 481] ({CH2CO}-[Ala(morpholin-4-yl)][Bip][Bip(4'-NHCO-C6H4-3-CH2COOH)][Sar]HD[dR]IPVHLCG-NH2; thioether N-13) | < 0.05 | 
2 | CC[C@H](C)[C@@H]1NC(=O)[C@@H](CCCNC(=N)N)NC(=O)[C@H](CC(=O)O)NC(=O)[C@H](Cc2cnc[nH]2)NC(=O)CN(C)C(=O)[C@H](Cc2ccc(-c3ccc(NC(=O)c4cccc(CC(=O)O)c4)cc3)cc2)NC(=O)[C@H](Cc2ccc(-c3ccc(C(=O)O)cc3)cc2)NC(=O)[C@H](C(C)(C)C)NC(=O)CSC[C@@H](C(=O)NCC(N)=O)NC(=O)[C@H](CC(C)C)NC(=O)[C@H](Cc2cnc[nH]2)NC(=O)[C@H](C(C)C)NC(=O)[C@@H]2CCCN2C1=O [Example 482] ({CH2CO}-[Tle][Bip(4'-COOH)][Bip(4'-NHCO-C6H4-3-CH2COOH)][Sar]HD[dR]IPVHLCG-NH2; thioether N-13) | < 0.05 | 
3 | CC[C@H](C)[C@@H]1NC(=O)[C@@H](CCCNC(=N)N)NC(=O)[C@H](CC(=O)O)NC(=O)[C@H](Cc2cnc[nH]2)NC(=O)CN(C)C(=O)[C@H](Cc2ccc(-c3ccc(NC(=O)c4ccc(CC(=O)O)cc4)cc3)cc2)NC(=O)[C@H](Cc2ccc(-c3ccccc3)cc2)NC(=O)[C@H](CN2CCOCC2)NC(=O)CSC[C@@H](C(=O)NCC(N)=O)NC(=O)[C@H](CC(C)C)NC(=O)[C@H](Cc2cnc[nH]2)NC(=O)[C@H](C(C)C)NC(=O)[C@@H]2CCCN2C1=O [Example 484] ({CH2CO}-[Ala(morpholin-4-yl)][Bip][Bip(4'-NHCO-C6H4-4-CH2COOH)][Sar]HD[dR]IPVHLCG-NH2; thioether N-13) | < 0.05 | 
4 | CC[C@H](C)[C@@H]1NC(=O)[C@@H](CCCNC(=N)N)NC(=O)[C@H](CC(=O)O)NC(=O)[C@H](Cc2cnc[nH]2)NC(=O)CN(C)C(=O)[C@H](Cc2ccc(-c3ccc(NC(=O)c4ccc(CC(=O)O)cc4)cc3)cc2)NC(=O)[C@H](Cc2ccc(-c3ccccc3)cc2)NC(=O)[C@H](C(C)(C)C)NC(=O)CSC[C@@H](C(=O)NCC(N)=O)NC(=O)[C@H](CC(C)C)NC(=O)[C@H](Cc2cnc[nH]2)NC(=O)[C@H](C(C)C)NC(=O)[C@@H]2CCCN2C1=O [Example 485] ({CH2CO}-[Tle][Bip][Bip(4'-NHCO-C6H4-4-CH2COOH)][Sar]HD[dR]IPVHLCG-NH2; thioether N-13) | < 0.05 | 
5 | CC[C@H](C)[C@@H]1NC(=O)[C@@H](CCCNC(=N)N)NC(=O)[C@H](CC(=O)O)NC(=O)[C@H](Cc2cnc[nH]2)NC(=O)CN(C)C(=O)[C@H](Cc2ccc(-c3ccc(NC(=O)c4ccc(CC(=O)O)cc4)cc3)cc2)NC(=O)[C@H](Cc2ccc(-c3ccc(C(=O)O)cc3)cc2)NC(=O)[C@H](C(C)(C)C)NC(=O)CSC[C@@H](C(=O)NCC(N)=O)NC(=O)[C@H](CC(C)C)NC(=O)[C@H](Cc2cnc[nH]2)NC(=O)[C@H](C(C)C)NC(=O)[C@@H]2CCCN2C1=O [Example 486] ({CH2CO}-[Tle][Bip(4'-COOH)][Bip(4'-NHCO-C6H4-4-CH2COOH)][Sar]HD[dR]IPVHLCG-NH2; thioether N-13) | < 0.05 | 
6 | CC[C@H](C)[C@@H]1NC(=O)[C@@H](CCCNC(=N)N)NC(=O)[C@H](CC(=O)O)NC(=O)[C@H](Cc2cnc[nH]2)NC(=O)CN(C)C(=O)[C@H](Cc2ccc(-c3ccc(NC(=O)c4ccc(CC(=O)O)cc4)cc3)cc2)NC(=O)[C@H](Cc2ccc(-c3ccc(C(=O)O)cc3)cc2)NC(=O)[C@H](CN2CCOCC2)NC(=O)CSC[C@@H](C(=O)NCC(N)=O)NC(=O)[C@H](CC(C)C)NC(=O)[C@H](Cc2cnc[nH]2)NC(=O)[C@H](C(C)C)NC(=O)[C@@H]2CCCN2C1=O [Example 487] ({CH2CO}-[Ala(morpholin-4-yl)][Bip(4'-COOH)][Bip(4'-NHCO-C6H4-4-CH2COOH)][Sar]HD[dR]IPVHLCG-NH2; thioether N-13) | < 0.05 | 
7 | CC[C@H](C)[C@@H]1NC(=O)[C@@H](CCCNC(=N)N)NC(=O)[C@H](CC(=O)O)NC(=O)[C@H](Cc2cnc[nH]2)NC(=O)CN(C)C(=O)[C@H](Cc2ccc(-c3ccc(NC(=O)c4ccc(CC(=O)O)cc4)cc3)cc2)NC(=O)[C@H](Cc2ccc(-c3ccc(C(=O)O)cc3)cc2)NC(=O)[C@H](CC2CCCCC2)NC(=O)CSC[C@@H](C(=O)NCC(N)=O)NC(=O)[C@H](CC(C)C)NC(=O)[C@H](Cc2cnc[nH]2)NC(=O)[C@H](C(C)C)NC(=O)[C@@H]2CCCN2C1=O [Example 488] ({CH2CO}-[Cha][Bip(4'-COOH)][Bip(4'-NHCO-C6H4-4-CH2COOH)][Sar]HD[dR]IPVHLCG-NH2; thioether N-13) | < 0.05 | 
8 | CC(C)C[C@@H]1NC(=O)[C@H](Cc2cnc[nH]2)NC(=O)[C@H](C(C)C)NC(=O)[C@@H]2CCCN2C(=O)[C@H](C(C)C)NC(=O)[C@@H](CCCNC(=N)N)NC(=O)[C@H](CC(=O)O)NC(=O)[C@H](Cc2cnc[nH]2)NC(=O)CN(C)C(=O)[C@H](Cc2ccc(-c3ccc(NC(=O)c4ccc(OCC(=O)O)cc4)cc3)cc2)NC(=O)[C@H](Cc2ccc(-c3ccccc3)cc2)NC(=O)[C@H](CC2CCCCC2)NC(=O)CSC[C@@H](C(=O)NCC(N)=O)NC1=O [Example 489] ({CH2CO}-[Cha][Bip][Bip(4'-NH)](Benzoyl(4-OCH2COOH))[Sar]HD[dR]VPVHLCG-NH2; thioether N-13) | < 0.05 | 
9 | CC[C@H](C)[C@@H]1NC(=O)[C@@H](CCCNC(=N)N)NC(=O)[C@H](CC(=O)O)NC(=O)[C@H](Cc2cnc[nH]2)NC(=O)CN(C)C(=O)[C@H](Cc2ccc(-c3ccc(NC(=O)c4ccccc4)cc3)cc2)NC(=O)[C@H](Cc2ccc(-c3ccccc3)cc2)NC(=O)[C@H](CC2CCCCC2)NC(=O)CSC[C@@H](C(=O)NCC(N)=O)NC(=O)[C@H](CC(C)C)NC(=O)[C@H](Cc2cnc[nH]2)NC(=O)[C@H](C2CCCCC2)NC(=O)[C@@H]2CCCN2C1=O [Example 490] ({CH2CO}-[Cha][Bip][Bip(4'-NHBz)][Sar]HD[dR]IP[Chg]HLCG-NH2; thioether N-13) |  | 0.05 to 0.2
10 | CC(C)C[C@@H]1NC(=O)[C@H](Cc2cnc[nH]2)NC(=O)[C@H](C(C)C)NC(=O)[C@@H]2CCCN2C(=O)[C@H](C(C)C)NC(=O)[C@@H](CCCNC(=N)N)NC(=O)[C@H](CC(=O)O)NC(=O)[C@H](Cc2ccccc2)NC(=O)CN(C)C(=O)[C@H](Cc2ccc(-c3ccc(NC(=O)c4ccccc4)cc3)cc2)NC(=O)[C@H](Cc2ccc(-c3ccccc3)cc2)NC(=O)[C@H](CN2CCOCC2)NC(=O)CSC[C@@H](C(=O)NCC(N)=O)NC1=O [Example 491] ({CH2CO}-[Ala(morpholin-4-yl)][Bip][Bip(4'-NHBz)][Sar]FD[dR]VPVHLCG-NH2; thioether N-13) |  | 0.05 to 0.2
11 | CC(C)C[C@@H]1NC(=O)[C@H](Cc2cnc[nH]2)NC(=O)[C@H](C(C)C)NC(=O)[C@@H]2CCCN2C(=O)[C@H](C(C)C)NC(=O)[C@@H](CCCNC(=N)N)NC(=O)[C@H](CC(=O)O)NC(=O)[C@H](Cc2ccccc2)NC(=O)CN(C)C(=O)[C@H](Cc2ccc(-c3ccc(NC(=O)c4ccc(OCC(=O)O)cc4)cc3)cc2)NC(=O)[C@H](Cc2ccc(-c3ccccc3)cc2)NC(=O)[C@H](CN2CCOCC2)NC(=O)CSC[C@@H](C(=O)NCC(N)=O)NC1=O [Example 492] ({CH2CO}-[Ala(morpholin-4-yl)][Bip][Bip(4'-NH)](Benzoyl(4-OCH2COOH))[Sar]FD[dR]VPVHLCG-NH2; thioether N-13) | < 0.05 | 
12 | CC(C)C[C@@H]1NC(=O)[C@H](Cc2cnc[nH]2)NC(=O)[C@H](C(C)C)NC(=O)[C@@H]2CCCN2C(=O)[C@H](C(C)C)NC(=O)[C@@H](CCCNC(=N)N)NC(=O)[C@H](CC(=O)O)NC(=O)[C@@H]2CCCN2C(=O)CN(C)C(=O)[C@H](Cc2ccc(-c3ccc(NC(=O)c4ccc(OCC(=O)O)cc4)cc3)cc2)NC(=O)[C@H](Cc2ccc(-c3ccccc3)cc2)NC(=O)[C@H](CC2CCCCC2)NC(=O)CSC[C@@H](C(=O)NCC(N)=O)NC1=O [Example 493] ({CH2CO}-[Cha][Bip][Bip(4'-NH)](Benzoyl(4-OCH2COOH))[Sar]PD[dR]VPVHLCG-NH2; thioether N-13) | 0.05 to 0.2 | 
13 | CC(C)C[C@@H]1NC(=O)[C@H](Cc2cnc[nH]2)NC(=O)[C@H](C(C)C)NC(=O)[C@@H]2CCCN2C(=O)[C@H](C(C)C)NC(=O)[C@@H](CCCNC(=N)N)NC(=O)[C@H](CC(=O)O)NC(=O)[C@H](Cc2ccccn2)NC(=O)CN(C)C(=O)[C@H](Cc2ccc(-c3ccc(NC(=O)c4ccc(OCC(=O)O)cc4)cc3)cc2)NC(=O)[C@H](Cc2ccc(-c3ccccc3)cc2)NC(=O)[C@H](CN2CCOCC2)NC(=O)CSC[C@@H](C(=O)NCC(N)=O)NC1=O [Example 494] ({CH2CO}-[Ala(morpholin-4-yl)][Bip][Bip(4'-NH)](Benzoyl(4-OCH2COOH))[Sar][2Pal]D[dR]VPVHLCG-NH2; thioether N-13) | < 0.05 | 
14 | CC(C)C[C@@H]1NC(=O)[C@H](Cc2cnc[nH]2)NC(=O)[C@H](C(C)C)NC(=O)[C@@H]2CCCN2C(=O)[C@H](C(C)C)NC(=O)[C@@H](CCCNC(=N)N)NC(=O)[C@H](CC(=O)O)NC(=O)[C@H](Cc2cnc[nH]2)NC(=O)CN(C)C(=O)[C@H](Cc2ccc(-c3ccc(NC(=O)c4ccc(OCC(=O)O)cc4)cc3)cc2)NC(=O)[C@H](Cc2ccc(-c3ccccc3)cc2)NC(=O)[C@H](CN2CCOCC2)NC(=O)CSC[C@@H](C(=O)NCC(N)=O)NC1=O [Example 495] ({CH2CO}-[Ala(morpholin-4-yl)][Bip][Bip(4'-NH)](Benzoyl(4-OCH2COOH))[Sar]HD[dR]VPVHLCG-NH2; thioether N-13) | < 0.05 | 
15 | CC[C@H](C)[C@@H]1NC(=O)[C@@H](CCCNC(=N)N)NC(=O)[C@H](CC(=O)O)NC(=O)[C@H](Cc2cnc[nH]2)NC(=O)CN(C)C(=O)[C@H](Cc2ccc(-c3ccc(NC(=O)c4cccc(CC(=O)O)c4)cc3)cc2)NC(=O)[C@H](Cc2ccc(-c3ccccc3)cc2)NC(=O)[C@H](C(C)(C)C)NC(=O)CSC[C@@H](C(=O)NCC(N)=O)NC(=O)[C@H](CC(C)C)NC(=O)[C@H](Cc2cnc[nH]2)NC(=O)[C@H](C(C)C)NC(=O)[C@@H]2CCCN2C1=O [Example 496] ({CH2CO}-[Tle][Bip][Bip(4'-NHCO-C6H4-3-CH2COOH)][Sar]HD[dR]IPVHLCG-NH2; thioether N-13) | < 0.05 | 
